Measurements published in the CheMixHub ionic liquid set.
± gives the uncertainty stated by the source.

Experiment: xn = mol fraction of the nth substance listed

O=C1CCCCCN1 + CCO + CCCC[N+](CCCC)(CCCC)CCCC.[Cl-]
electrical conductivity [S/m], 101 kPa
Settings | x1 = 0.0058, x3 = 0.0058 | x1 = 0.00584, x3 = 0.0058 | x1 = 0.00587, x3 = 0.00587 | x1 = 0.0059, x3 = 0.0059 | x2 = 0.555, x1 = 0.2225 | x2 = 0.6648, x1 = 0.1676 | x2 = 0.7728, x1 = 0.1136 | x2 = 0.8892, x1 = 0.0554
295.65 K | – | – | – | – | 0.218 ± 0.0022 | 0.2632 ± 0.0026 | 0.3032 ± 0.003 | –
298.15 K | – | – | – | – | 0.232 ± 0.0023 | 0.268 ± 0.0027 | 0.31 ± 0.0031 | –
300.65 K | – | 0.0588 ± 0.001 | – | – | 0.241 ± 0.0024 | 0.269 ± 0.0027 | 0.3143 ± 0.0031 | –
303.15 K | – | – | – | 0.0587 ± 0.001 | 0.256 ± 0.0026 | 0.27 ± 0.0027 | 0.317 ± 0.0032 | 0.25 ± 0.0026
305.65 K | – | 0.0586 ± 0.001 | – | – | 0.2704 ± 0.0027 | 0.2713 ± 0.0027 | 0.317 ± 0.0032 | 0.25 ± 0.0026
308.15 K | – | 0.0585 ± 0.001 | – | – | 0.2842 ± 0.0028 | 0.2737 ± 0.0027 | 0.319 ± 0.0032 | 0.249 ± 0.0026
310.65 K | – | – | – | 0.0585 ± 0.001 | 0.2936 ± 0.0029 | 0.276 ± 0.0028 | 0.3224 ± 0.0032 | 0.248 ± 0.0026
313.15 K | – | 0.0585 ± 0.001 | – | – | 0.3023 ± 0.003 | 0.278 ± 0.0028 | 0.325 ± 0.0033 | 0.248 ± 0.0026
315.65 K | – | – | – | 0.0587 ± 0.001 | 0.308 ± 0.0031 | 0.28 ± 0.0028 | 0.328 ± 0.0033 | 0.248 ± 0.0026
318.15 K | – | – | – | 0.0587 ± 0.001 | 0.3136 ± 0.0031 | 0.2821 ± 0.0028 | 0.329 ± 0.0033 | 0.248 ± 0.0026
320.65 K | – | 0.0587 ± 0.001 | – | – | 0.3131 ± 0.0031 | 0.2841 ± 0.0028 | 0.3303 ± 0.0033 | 0.246 ± 0.0026
323.15 K | – | 0.0586 ± 0.001 | – | – | 0.315 ± 0.0032 | 0.287 ± 0.0029 | 0.329 ± 0.0033 | 0.245 ± 0.0026
325.65 K | 0.0584 ± 0.001 | – | – | – | 0.3129 ± 0.0031 | 0.288 ± 0.0029 | 0.327 ± 0.0033 | 0.246 ± 0.0026
328.15 K | 0.0576 ± 0.001 | – | – | – | – | 0.289 ± 0.0029 | – | 0.246 ± 0.0026
330.65 K | – | 0.0569 ± 0.0009 | – | – | – | 0.288 ± 0.0029 | – | 0.245 ± 0.0026
333.15 K | – | – | 0.0562 ± 0.0009 | – | – | 0.288 ± 0.0029 | – | 0.245 ± 0.0026

CC[n+]1ccn(C)c1.N#C[N-]C#N + CCO + O
viscosity [mPa·s], 101 kPa
Settings | 298.15 K | 313.15 K | 328.15 K | 343.15 K
x2 = 0.0957, x3 = 0.7595 | 3.15 ± 0.13 | 2.21 ± 0.09 | – | –
x2 = 0.1156, x3 = 0.8359 | 2.25 ± 0.09 | 1.52 ± 0.06 | – | –
x2 = 0.1191, x3 = 0.3486 | 6.67 ± 0.27 | 4.77 ± 0.2 | 3.64 ± 0.15 | 2.85 ± 0.12
x2 = 0.2007, x3 = 0.7083 | 2.87 ± 0.12 | 2 ± 0.08 | 1.42 ± 0.06 | 1.08 ± 0.04
x2 = 0.2484, x3 = 0.6015 | 3.39 ± 0.14 | 2.36 ± 0.1 | 1.74 ± 0.07 | 1.34 ± 0.06
x2 = 0.2507, x3 = 0.6986 | 2.65 ± 0.11 | 1.76 ± 0.07 | 1.25 ± 0.05 | 0.94 ± 0.04
x2 = 0.2881, x3 = 0.404 | 4.63 ± 0.19 | 3.33 ± 0.14 | 2.52 ± 0.11 | 2.02 ± 0.08
x2 = 0.379, x3 = 0.1385 | 5.89 ± 0.25 | 4.31 ± 0.18 | 3.3 ± 0.14 | 2.63 ± 0.11
x2 = 0.4202, x3 = 0.3032 | 4 ± 0.17 | 2.92 ± 0.12 | 2.23 ± 0.1 | 1.77 ± 0.08
x2 = 0.4889, x3 = 0.4093 | 2.77 ± 0.12 | 1.95 ± 0.08 | – | –
x2 = 0.6949, x3 = 0.2046 | 2.27 ± 0.1 | – | – | –

O + CCOS(=O)(=O)[O-].CC[n+]1ccn(C)c1
Settings | electrical conductivity [S/m]
298.15 K, 101.3 kPa, x1 = 1 | 0.00264 ± 0.00026

CC1COC(=O)O1 (centres undefined) + CC[N+](CC)(CC)CC.F[B-](F)(F)F
101 kPa, x1 = 1
Settings | viscosity [mPa·s]
283.15 K | 3.551 ± 0.051
298.15 K | 2.531 ± 0.037
308.15 K | 2.09 ± 0.031
313.15 K | 1.918 ± 0.029
